Laboratory results published in patent EP1219608A1, “PYRIMIDINE DERIVATIVES, PROCESS FOR PREPARING THE DERIVATIVES AND DRUGS CONTAINING THE SAME AS THE ACTIVE INGREDIENT” (ONO PHARMACEUTICAL CO., LTD., priority 1999, dated 2001).
pIC50: −log10 of the molar value.

Biological target: T1, human sputum elastase (HSE) (Homo sapiens, UniProt P08246)
T1 construct: human sputum elastase (HSE); from tissue; host or cells: human sputum (from the enzyme's name only)
T1 sequence (P08246 30-247 limits assumed): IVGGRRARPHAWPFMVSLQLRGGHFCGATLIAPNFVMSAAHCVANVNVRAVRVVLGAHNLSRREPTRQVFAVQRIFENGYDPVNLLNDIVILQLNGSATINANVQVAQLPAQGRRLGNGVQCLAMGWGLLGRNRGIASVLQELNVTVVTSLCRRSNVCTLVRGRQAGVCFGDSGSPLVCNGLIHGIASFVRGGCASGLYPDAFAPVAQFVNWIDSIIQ
Assay: Inhibitory effects on human sputum elastase
Format: biochemical
Conditions: pre-incubated at 37°C for 20 minutes; substrate MeO-Suc-Ala-Ala-Pro-Val-pNA, 37°C for 5 minutes; HEPES buffer (pH 8.0); pNA measured at 405 nm
Procedure: (1) Inhibitory effects on human sputum elastase
A mixture of 0.5 ml of 0.2 mM HEPES buffer (pH 8.0), 0.2 ml of 2.5 M aqueous solution of sodium chloride, 0.1 ml of 1% polyethyleneglycol 6000, 0.13 ml of distilled water, 0.01 ml of a solution of test compound in dimethylsulfoxide (DMSO) and 0.05 ml of 0.8 U/ml human sputum elastase (HSE) was pre-incubated at 37°C, for 20 minutes. 0.01 ml of 5 mM MeO-Suc-Ala-Ala-Pro-Val-pNA in DMSO was added to the above mixture and the mixture was incubated at 37°C for 5 minutes. The reaction was terminated by 0.1 ml of 50% acetic acid and then p-nitroanilide (pNA) released was measured spectrophotometrically at 405 nm. Percent inhibition of a compound was calculated by the following equation. Inhibition (%) = [1 - {delta OD (test-blank) / delta OD (control-blank)}] × 100 [formula]

pIC50: 7.06
SMILES: CC(C)C(NC(=O)Cn1c(-c2ccccc2)ncc([N+](=O)[O-])c1=O)C(=O)c1nnc(C(C)(C)C)o1 (racemic) [Example 7(1), N-[(1RS)-1-(5-(t-butyl)-1,3,4-oxadiazol-2-ylcarbonyl)-2-methylpropyl]-2-[6-oxo-2-phenyl-5-nitro-1,6-dihydropyrimidin-1-yl]acetamide]
